According to patent US20250032476A1, “ALPHA-2A ADRENERGIC RECEPTOR MODULATORS AND USES THEREOF” (The Regents of the University of California, priority 2021, published 2025):
Several values for one entry are separate records, joined by “and”; a condition that tells them apart may be missing. Identical values can stand only once.

The compounds below were run against T1, human α2AAR (Homo sapiens (Human), UniProt P08913) (assay: Radioligand competition binding to human α2AAR (HEK293T membranes, [3H]RX82,1002)). Details: human α2AAR; mean ± SEM (Table 3); read-out: Ki.
T1 sequence (P08913 whole entry): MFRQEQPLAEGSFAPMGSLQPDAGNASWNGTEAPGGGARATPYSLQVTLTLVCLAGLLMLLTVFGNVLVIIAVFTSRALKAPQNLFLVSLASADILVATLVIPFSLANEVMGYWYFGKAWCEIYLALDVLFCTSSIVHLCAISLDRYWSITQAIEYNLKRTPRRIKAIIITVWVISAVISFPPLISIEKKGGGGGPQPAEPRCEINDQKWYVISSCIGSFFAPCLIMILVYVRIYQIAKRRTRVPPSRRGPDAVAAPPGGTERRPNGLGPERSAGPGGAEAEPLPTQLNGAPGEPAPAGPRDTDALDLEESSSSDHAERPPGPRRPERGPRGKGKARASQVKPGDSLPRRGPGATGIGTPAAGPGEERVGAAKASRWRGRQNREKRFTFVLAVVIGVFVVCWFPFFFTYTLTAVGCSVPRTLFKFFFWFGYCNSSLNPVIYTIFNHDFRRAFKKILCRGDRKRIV

Compound	Ki
O=C1NCCc2c(Nc3ccncc3)cccc21 [PS86]	1.2 ± 0.56 µM
c1ccc(Nc2cncc3ccccc23)cc1	> 10 µM
c1cc(Nc2ccncc2)c2sccc2c1 [Compound 4914]	0.0072 ± 0.001 µM
c1ccc2c(Nc3ccncc3)ncnc2c1	6.6 ± 1.8 µM
c1ccc2c(Oc3ccncc3)cccc2c1	1.8 ± 0.73 µM
Nc1ccc(Nc2cncc3ccccc23)cc1	4.6 ± 2.1 µM
O=C1CCc2c(cccc2Nc2ccncc2)N1 [PS84]	0.5 ± 0.087 µM
COc1ccc2cccc(Nc3ccncc3)c2c1 [PS71]	0.24 ± 0.12 µM
Clc1ncc2ccccc2c1Nc1ccncc1 [Compound 1718, 3-chloro-N-(pyridin-4-yl)isoquinolin-4-amine]	0.022 ± 0.0067 µM

Each compound was assayed against T2, ALPHA-2A ADRENERGIC RECEPTOR (Homo sapiens (Human), UniProt P08913) (assay: Arrestin recruitment). Details: Tables 7-9.
Format: cell-based

T2 sequence (P08913 whole entry): as above

Compound	Emax
C=C(c1ccc(C(F)(F)F)cc1)c1cc(N)ccn1 [TP101, 2-(1-(4-(Trifluoromethyl)phenyl)vinyl)pyridin-4-amine]	< 5%
Nc1ccc(-c2cc([N+](=O)[O-])c3[nH]ncc3c2)cn1 [TP70, 5-(7-Nitro-1H-indazol-5-yl)pyridin-2-amine]	< 10%
N#Cc1ccc(C2=CCCNC2)c2cccnc12 [PS-NN05]	< 10%
O=C1CCc2cc(C3=CCCNC3)ccc21 [TP90]	< 5%
Nc1ccnc(Cc2ccc(F)cc2)c1 [TP94, 2-(4-Fluorobenzyl)pyridin-4-amine]	< 10%
C1=C(c2cccc3ncncc23)CNCC1 [PS-NN06]	< 10%
Nc1ccc(-c2ccc3[nH]ncc3c2F)cn1 [TP84, 5-(4-Fluoro-1H-indazol-5-yl)pyridin-2-amine]	< 10%
Nc1ccc(-c2cc3cn[nH]c3cc2[N+](=O)[O-])cn1 [TP78, 5-(6-Nitro-1H-indazol-5-yl)pyridin-2-amine]	< 10%
O=C1CCc2ccc(C3=CCCNC3)cc21 [TP81]	< 10%
C=C1CCc2cc(C3=CCCNC3)ccc21 [TP105, 5-(1-Methylene-2,3-dihydro-1H-inden-5-yl)-1,2,3,6-tetrahydropyridine]	< 5%
NC1CCc2ccc(C3=CCCNC3)cc21 (stereo not shown) [TP92]	< 5%

Same assay, conditions: at 100 μM

Compound	Arrestin effect at 100 μM
N#Cc1cc2[nH]ncc2cc1-c1ccc(N)nc1 [BSC2998-E02]	25% at 100 μM

What follows are compounds tested against T1, human α2AAR (assay: β-arrestin-2 recruitment, BRET biosensor assay in HEK293T cells). Details: HEK-293T, read-out: β-Arr-2 Emax.
Protocol: Bioluminescense resonance energy transfer. G protein mediated activation of human α2AAR and D2long was monitored with Gαi1-RLucII (71, 72) together with Gβ1 and Gγ1-GFP10. Arrestin recruitment was performed by enhanced bystander BRET using CAAX-rGFP and β-arrestin-2-RLucII as biosensors (all biosensors are provided from M. Bouvier, Université de Montréal, Canada) (71, 73) in the presence of GRK2 as described (66, 74). In brief, HEK293T cells were transfected with a total amount of 3.3 μg DNA per 10^6 cells using linear polyethyleneimine (PEI, Polysciences, 3:1 PEI:DNA ratio) and transferred into 96-well half-area plates (Greiner, Frickenhausen, Germany) at a density of 10,000 cells per well and incubated for 48 hrs. Medium was exchanged with PBS (Hank's balanced salt solution) and cells were stimulated with ligands at 37° C. for 10 min for Gαi stimulation or arrestin recruitment, respectively.

Compound	Emax
c1cc(Nc2ccncc2)c2sccc2c1 [Compound 4914]	< 5%
COc1ccc2cccc(Nc3ccncc3)c2c1 [PS71]	< 5%
Clc1ncc2ccccc2c1Nc1ccncc1 [Compound 1718, 3-chloro-N-(pyridin-4-yl)isoquinolin-4-amine]	< 5%

Same assay, conditions: HEK-293T, read-out: β-arrestin-2 Emax

Compound	Emax
Clc1cccc(Cl)c1N=C1NCCN1 [CLON, clonidine, reference compound]	41 ± 3%
Cc1cccc([C@H](C)c2cnc[nH]2)c1C [DEX, dexmedetomidine, reference compound]	60 ± 3%

What follows are compounds tested against T1, human α2AAR (assay: Gαi G protein activation, BRET biosensor assay in HEK293T cells). Details: not given.

Compound	Fold reduced Gi activity compared to ‘5879
COc1ccc2cccc(Nc3ccncc3)c2c1 [PS71]	15 fold and 16 fold

Same assay, conditions: Gi EC50 ± SE, BRET biosensor, human α2AAR (Table 3)

Compound	EC50
O=C1NCCc2c(Nc3ccncc3)cccc21 [PS86]	3.4 µM
c1cc(Nc2ccncc2)c2sccc2c1 [Compound 4914]	0.0091 µM
O=C1CCc2c(cccc2Nc2ccncc2)N1 [PS84]	0.84 µM
COc1ccc2cccc(Nc3ccncc3)c2c1 [PS71]	0.1 µM
Clc1ncc2ccccc2c1Nc1ccncc1 [Compound 1718, 3-chloro-N-(pyridin-4-yl)isoquinolin-4-amine]	0.014 µM

Same assay, conditions: HEK-293T, read-out: Gi Emax @ 0.1 mM

Compound	Emax
c1ccc(Nc2cncc3ccccc23)cc1	57%
c1ccc2c(Oc3ccncc3)cccc2c1	43%

Same assay, conditions: HEK-293T, read-out: Gi Emax ± SEM

Compound	Emax
O=C1NCCc2c(Nc3ccncc3)cccc21 [PS86]	91%
c1cc(Nc2ccncc2)c2sccc2c1 [Compound 4914]	77%
c1ccc2c(Nc3ccncc3)ncnc2c1	< 5%
Nc1ccc(Nc2cncc3ccccc23)cc1	< 5%
O=C1CCc2c(cccc2Nc2ccncc2)N1 [PS84]	37%
COc1ccc2cccc(Nc3ccncc3)c2c1 [PS71]	85%
Clc1ncc2ccccc2c1Nc1ccncc1 [Compound 1718, 3-chloro-N-(pyridin-4-yl)isoquinolin-4-amine]	47%

Same assay, conditions: HEK-293T, read-out: Gαi Emax

Compound	Emax
Clc1cccc(Cl)c1N=C1NCCN1 [CLON, clonidine, reference compound]	115 ± 4%
Cc1cccc([C@H](C)c2cnc[nH]2)c1C [DEX, dexmedetomidine, reference compound]	105 ± 4%

The compounds below were run against T2, ALPHA-2A ADRENERGIC RECEPTOR (assay: Gi recruitment (G protein)). Details: Gi recruitment, Table 6, result in words.
Format: cell-based

Compound	functional classification (agonist / weak agonist)
O=C1NCCc2c(Nc3ccncc3)cccc21 [PS86]	agonist
O=C1CCc2c(cccc2Nc2ccncc2)N1 [PS84]	agonist
COc1ccc2cccc(Nc3ccncc3)c2c1 [PS71]	agonist
Clc1ncc2ccccc2c1Nc1ccncc1 [Compound 1718, 3-chloro-N-(pyridin-4-yl)isoquinolin-4-amine]	agonist

Same assay, conditions: Gi recruitment, Table 6; read-out: EC50

Compound	EC50
O=C1NCCc2c(Nc3ccncc3)cccc21 [PS86]	3.2 µM
c1cc(Nc2ccncc2)c2sccc2c1 [Compound 4914]	0.0068 µM
O=C1CCc2c(cccc2Nc2ccncc2)N1 [PS84]	0.45 µM
COc1ccc2cccc(Nc3ccncc3)c2c1 [PS71]	0.089 µM
Clc1ncc2ccccc2c1Nc1ccncc1 [Compound 1718, 3-chloro-N-(pyridin-4-yl)isoquinolin-4-amine]	0.008 µM

Same assay, conditions: Gi recruitment, Table 6; read-out: Emax (%)

Compound	Emax
c1cc(Nc2ccncc2)c2sccc2c1 [Compound 4914]	76%
Clc1ncc2ccccc2c1Nc1ccncc1 [Compound 1718, 3-chloro-N-(pyridin-4-yl)isoquinolin-4-amine]	45%

Same assay, conditions: Gi recruitment, Tables 7-9; read-out: G protein EC50

Compound	EC50
Nc1ccc(-c2cc([N+](=O)[O-])c3[nH]ncc3c2)cn1 [TP70, 5-(7-Nitro-1H-indazol-5-yl)pyridin-2-amine]	3.2 µM
N#Cc1cc2[nH]ncc2cc1-c1ccc(N)nc1 [BSC2998-E02]	2.9 µM
Nc1ccnc(Cc2ccc(F)cc2)c1 [TP94, 2-(4-Fluorobenzyl)pyridin-4-amine]	5 µM
Nc1ccc(-c2ccc3[nH]ncc3c2F)cn1 [TP84, 5-(4-Fluoro-1H-indazol-5-yl)pyridin-2-amine]	1.1 µM
Nc1ccc(-c2cc3cn[nH]c3cc2[N+](=O)[O-])cn1 [TP78, 5-(6-Nitro-1H-indazol-5-yl)pyridin-2-amine]	0.91 µM
O=C1CCc2ccc(C3=CCCNC3)cc21 [TP81]	3 µM

Same assay, conditions: Gi recruitment, Tables 7-9; read-out: G protein Emax (%)

Compound	Emax
C=C(c1ccc(C(F)(F)F)cc1)c1cc(N)ccn1 [TP101, 2-(1-(4-(Trifluoromethyl)phenyl)vinyl)pyridin-4-amine]	< 5%
Nc1ccc(-c2cc([N+](=O)[O-])c3[nH]ncc3c2)cn1 [TP70, 5-(7-Nitro-1H-indazol-5-yl)pyridin-2-amine]	-27%
N#Cc1ccc(C2=CCCNC2)c2cccnc12 [PS-NN05]	< 5%
O=C1CCc2cc(C3=CCCNC3)ccc21 [TP90]	< 5%
N#Cc1cc2[nH]ncc2cc1-c1ccc(N)nc1 [BSC2998-E02]	14%
Nc1ccnc(Cc2ccc(F)cc2)c1 [TP94, 2-(4-Fluorobenzyl)pyridin-4-amine]	19%
C1=C(c2cccc3ncncc23)CNCC1 [PS-NN06]	< 10%
Nc1ccc(-c2ccc3[nH]ncc3c2F)cn1 [TP84, 5-(4-Fluoro-1H-indazol-5-yl)pyridin-2-amine]	49%
Nc1ccc(-c2cc3cn[nH]c3cc2[N+](=O)[O-])cn1 [TP78, 5-(6-Nitro-1H-indazol-5-yl)pyridin-2-amine]	51%
O=C1CCc2ccc(C3=CCCNC3)cc21 [TP81]	79%
C=C1CCc2cc(C3=CCCNC3)ccc21 [TP105, 5-(1-Methylene-2,3-dihydro-1H-inden-5-yl)-1,2,3,6-tetrahydropyridine]	< 5%

Same assay, conditions: at 100 μM

Compound	G protein effect at 100 μM
NC1CCc2ccc(C3=CCCNC3)cc21 (stereo not shown) [TP92]	18% at 100 μM

Each compound was assayed on mice (assay: Rotarod motor test (motor impairment and sedation)). Details: equi-analgesic doses (DEX: higher doses).
Format: in vivo

Compound	Motor impairment / sedation in rotarod test
Cc1cccc([C@H](C)c2cnc[nH]2)c1C [DEX, dexmedetomidine, reference compound]	significant impairment and complete sedation at higher doses

The compounds below were run against α2AAR-Y431^7.43A/F (Homo sapiens, UniProt P08913, Y431A) (assay: Gi activation (BRET) at α2AAR Y431^7.43 mutants). Details: not given.
Format: cell-based
Protocol: Investigating the sensitivity of selected ligands to the receptor mutants α2AAR-D128^3.32A, α2AAR-D128^3.32T, α2AAR-D128^3.32L, α2AAR-S215^5.42A, α2AAR-Y409^6.55A, α2AAR-Y409^6.55T, α2AAR-Y409^6.55F, α2AAR-F427^7.39F, α2AAR-Y431^7.43A, and α2AAR-Y431^7.43F was determined by monitored G protein stimulation as described above transfecting the appropriate receptor together with Gαi1-RLucII and Gβ1/Gγ1-GFP10. […] Three to ten experiments were done in duplicate.
The sensitivity of selected ligands to the receptor mutants α2AAR-D128^3.32A, α2AAR-D128^3.32T, α2AAR-D128^3.32L, α2AAR-S215^5.42A, α2AAR-Y409^6.55A, α2AAR-Y409^6.55T, α2AAR-Y409^6.55F, α2AAR-F427^7.39F, α2AAR-Y431^7.43A, and α2AAR-Y431^7.43F was monitored by G protein activation as described above transfecting the appropriate receptor together with Gαi1-RLucII and Gβ1/Gγ2-GFP10. […] Similarly, the effect of the α2AAR-D128^3.32A, α2AAR-S215^5.42A, α2AAR-Y409^6.55A, α2AAR-Y409^6.55F, α2AAR-F427^7.39F, α2AAR-Y431^7.43A, and α2AAR-Y431^7.43F mutations on arrestin recruitment was evaluated as described above transfecting the appropriate receptor together with CAAX-rGFP, GRK2 and β-arrestin-2-RLucII. Data was analyzed as ligand induced changes in BRET compared to vehicle (deltaBRET). Three to seven experiments were done in duplicate.

Compound	Gi signaling at Y431^7.43A
NC[C@H](O)c1ccc(O)c(O)c1 [norepinephrine]	essentially eliminated

These compounds were tested against T1, human α2AAR (assay: DiscoverX HitHunter cAMP G-protein activation assay). Details: read-out: Gi/o Emax.
Protocol: DiscoverX HitHunter cAMP G-protein activation assay. […] Freezer stock cAMP Hunter cell lines were expanded, then seeded in a total volume of 20 uL into white walled, 384-well microplates and incubated at 37° C. prior to testing. For agonist determination, cells were incubated with compound samples in the presence of EC80 forskolin to induce response. Media was aspirated from cells and replaced with 15 uL 2:1 HBSS/10 mM Hepes: cAMP XS+Ab reagent. Intermediate dilution of sample stocks was performed to generate 4× sample in assay buffer containing 4× EC80 forskolin. […] Finally assay vehicle concentration was 1%. After sample incubation assay signal was generated through incubation with 20 uL cAMP XS+ED/CL lysis cocktail for one hour followed by incubation with 20 uL cAMP XS+EA reagent for three hours at room temperature. Microplates were read following signal generation with a PerkinElmer Envision Instrument for chemiluminescent signal detection. Compound activity was analyzed using CBIS data analysis suite. For Gi agonist mode, percentage activity is calculated using the following formula: % Activity=100%×(1−(mean RLU of test sample−mean RLU of MAX control)/(mean RLU of vehicle control−mean RLU of MAX control)). […] Each measurement was done in duplicate.
DiscoverX HitHunter cAMP G-protein activation assay. […] Freezer stock cAMP Hunter cell lines were expanded, then seeded in a total volume of 20 μL into white walled, 384-well microplates and incubated at 37° C. prior to testing. For agonist determination, cells were incubated with compound samples in the presence of EC50 forskolin to induce response. Media was aspirated from cells and replaced with 15 μL 2:1 HBSS/10 mM Hepes: cAMP XS+Ab reagent. Intermediate dilution of sample stocks was performed to generate 4× sample in assay buffer containing 4× EC80 forskolin. […] Finally assay vehicle concentration was 1%. After sample incubation assay signal was generated through incubation with 20 μL cAMP XS+ED/CL lysis cocktail for one hour followed by incubation with 20 μL cAMP XS+EA reagent for three hours at room temperature. Microplates were read following signal generation with a PerkinElmer Envision Instrument for chemiluminescent signal detection. Compound activity was analyzed using CBIS data analysis suite. For Gi agonist mode, percentage activity is calculated using the following formula: % Activity=100%×(1−(mean RLU of test sample−mean RLU of MAX control)/(mean RLU of vehicle control−mean RLU of MAX control)). […] Each measurement was done in duplicate.

Compound	Emax
Brc1c(NC2=NCCN2)ccc2nccnc12 [Brimonidine, brimonidine, reference compound]	107 ± 7%
Cc1cccc([C@H](C)c2cnc[nH]2)c1C [DEX, dexmedetomidine, reference compound]	76 ± 3%
